From US11865110B2, “Thrombin inhibitors, formulations, and uses thereof” (VERSEON INTERNATIONAL CORPORATION, priority 2018, dated 2024)

Legend:
Mouse plasma stability = type: in vitro ADME, mouse (CD-1); conditions: CD-1 mouse plasma, 37° C., time points to 160 min; read-out: Mouse Plasma Stability t1/2
Procedure: Alongside a positive control of propantheline bromide, 8 μL of a 1 mM solution of each test compound in DMSO was placed in two wells of a Nunc™ 96-well plate called the “dilution plate.” To one well, 392 μL of HyClone™ water was added and mixed by a pipette. To the other well, 392 μL of mouse or rat plasma stabilized with sodium citrate purchased from Innovative Research was added and mixed by a pipette. The dilution plate was kept covered to reduce solvent evaporation and heated in an incubator at 37° C. At each of the time points enumerated below, the plate was removed from the incubator and 50 μL of the test compound/water or test compound/plasma solutions were transferred to a unique, corresponding well in a “quench plate” (96-well Costar® plate) that contains 150 μL of a quench solution that contains an internal standard (20 uM diclofenac in acetonitrile). The dilution plate was then returned to the incubator. This process was performed at 0, 5, 10, 20, 40, 80, and 160 minutes from the original mixing of the test compounds with the water or plasma in the dilution plate. After the quenching of the 160-minute time point, the quench plate was then centrifuged at 4° C. at 1000×g for 10 minutes. 100 μL of the supernatant of each well were then transferred to corresponding unique wells in a “read plate” (96-well Costar® plate) that were filled with 100 μL of HyClone™ water. The plate was then sealed and analyzed via UHPLC using a 10-μL sample injection through a Phenomenex® Kinetex column pre-equilibrated with the loading buffer (95:5 water:acetonitrile). The parameters were as follows. Mobile Phase A: water, 0.025% formic acid. Mobile Phase B: acetonitrile, 0.025% formic acid. Flow Rate: 0.5 mL/min. […] Half-life (t1/2) times were computed by using a chi-square analysis to fit the peak areas to an exponential decay model for compound concentration as a function of time.

[1] = Rat liver microsome stability; type: in vitro ADME; conditions: Sprague-Dawley, pH 7.4; SD rat liver microsomes 0.5 mg/mL, NADPH, 37° C.; lower measurable bound 5
Procedure: In a 96-well Nunc™ plate, 1.5 μL of a 200 μM solution of the test compound in DMSO were placed in a well. This plate, the “Reaction Plate,” was then warmed to 37° C. in an oven. In a second 96-well Nunc™ plate, the “Quench Plate,” six wells were filled with 180 μL of an internal standard quench solution composed of 100 nM diclofenac in acetonitrile. These six wells correspond to the six time points for data collection: 0, 0.5, 5, 15, 30, and 60 minutes. “Assay Buffer” was prepared by combining 6.96 g potassium phosphate, dibasic, 1.36 g potassium phosphate, monobasic, and 0.30 g of magnesium chloride hexahydrate, then diluting to a final concentration of 500 mL in water and adjusting to pH 7.4, as needed. Assay Buffer was warmed to 37° C., and 12 mL were added to a 10-mg vial of NADPH. Then 300 μL of a 20 mg/mL liver microsome suspension were added to yield a 0.5 mg/mL liver microsome suspension. 300 μL of this liver microsome suspension was then added to the test compound solution in the Reaction Plate and mixed thoroughly with a pipette tip. At each time point, 30 μL of this mixture was transferred to the corresponding well of the Quench Plate. In between time points, the Reaction Plate was kept sealed and warmed in an incubator at 37° C. When the last time point had been completed, the quench plate was centrifuged at 4° C. at 1000×g for 10 minutes. Afterwards, 50 μL of the supernatant of each well was transferred to unique, corresponding wells of a 96-well Costar® plate, the “Analysis Plate,” filled with 150 μL of 50:50 acetonitrile:HyClone™ water. The Analysis Plate was then sealed with a pre-slit plate seal before analysis via an appropriate LCMS method with a 10 μL injection. The abstracted AUC data were then automatically plotted to calculate intrinsic clearance in μL/min/mg. This experiment was run alongside a positive and negative control. Due to the parameters of this procedure, one of skill in the art will appreciate that this assay has a lower measurable bound of 5 μL/min/mg; therefore, certain compounds have their clearances labeled as ≤5 μL/min/mg.

[2] = tested on: platelet activation (mouse thrombin); test: Inhibition of platelet activation in CD-1 mouse plasma; type: cell-based; conditions: CD-1 mouse platelet-rich plasma, Chrono-Lume luminescence, read-out: EC50 towards inhibited platelet activation
Procedure: Assays for inhibition of platelet activation in mouse plasma were performed by the following procedure. Test compounds and positive controls were first diluted in a three-fold series in DMSO to generate a range of concentrations for each from 1500 to 0.08 μM. 2 μL of each sample solution was then placed in corresponding wells of a 96-well plate (the “assay plate”) containing 88 μL of a platelet-rich plasma (PRP) mix described below. 10 μL of a 10 nM solution of mouse thrombin in assay buffer (described below) was then added to each well of the assay plate. The plate was then shaken on a Lab-Line Instruments Inc. titer plate shaker for 2 minutes at 300 RPM. 10 uL of Chrono-Lume® solution was then added to each well. The plate was again shaken for 3 minutes at 300 RPM. Luminescence data were recorded from a plate reader. Each sample was measured in duplicate and against blanks with and without mouse thrombin to record background and maximum signal measurements. The IC50 data were automatically calculated from the measured luminescence counts by means appreciated by one of skill in the art.
The various solutions involved in this procedure are described as follows. Assay buffer was made by combining 7.5 mL of 5 M NaCl with 1.19 g of HEPES powder, 0.5 mL of 1 M MgCl2, 1.5 mL of 1 M KCl and 235 mL of water in a 500 mL flask. The solution's pH was adjusted to 7.4 using 10 N NaOH, and then brought up to a final volume of 250 mL using water. A 20 mM solution of H-Gly-Pro-Arg-Pro-OH (GPRP) in this assay buffer was made from commercially obtained powder. The PRP Mix was made by first centrifuging down 600 μL of whole CD-1 mouse blood in 1.8 mL sodium citrate vacutainers at 100×g for 10 minutes at room temperature in an Eppendorf 5810 R centrifuge. The plasma layer was then extracted along with as much as possible of the buffy coat into storage vials. Extractions from multiple animals were often pooled together. To make the final mix, 2.3 mL of these plasma extractions was combined with 7.2 mL of the above assay buffer and 0.5 mL of the 20 mM GPRP solution. […]

half-life at 20 µM (Mouse plasma stability) | microsomal CLint at 1 µM [1] | EC50 [2] | SMILES
≥ 5 h | ≤ 5 µL/min/mg | – | O=C(O)Cn1cccc(-c2cc(NCc3ccc(Cl)s3)[nH]n2)c1=O [Compound 3, 2-[3-(5-{[(5-chlorothiophen-2-yl)methyl]amino}-1H-pyrazol-3-yl)-2-oxo-1,2-dihydropyridin-1-yl]acetic acid]
≥ 5 h | ≤ 5 µL/min/mg | 15 µM | CC(C)(C)C(=O)n1nc(-c2cccn(CC(=O)O)c2=O)cc1NCc1ccc(Cl)s1 [Compound 4, 2-[3-(5-{[(5-chlorothiophen-2-yl)methyl]amino}-1-(2,2-dimethylpropanoyl)-1H-pyrazol-3-yl)-2-oxo-1,2-dihydropyridin-1-yl]acetic acid]
2.67 h | ≤ 5 µL/min/mg | 0.032 µM | CC(C)(N)Cn1cccc(-c2cc(NCc3ccc(Cl)s3)n(C(=O)c3ccoc3)n2)c1=O [Compound 9, 1-(2-amino-2-methylpropyl)-3-(5-{[(5-chlorothiophen-2-yl)methyl]amino}-1-(furan-3-carbonyl)-1H-pyrazol-3-yl)-1,2-dihydropyridin-2-one]
≥ 3 h | ≤ 5 µL/min/mg | 15 µM | CC(C)(C)C(=O)n1nc(-c2cccn(CCC(=O)O)c2=O)cc1NCc1ccc(Cl)s1 [Compound 1, 3-[3-(5-{[(5-chlorothiophen-2-yl)methyl]amino}-1-(2,2-dimethylpropanoyl)-1H-pyrazol-3-yl)-2-oxo-1,2-dihydropyridin-1-yl]propanoic acid]
≥ 5 h | ≤ 5 µL/min/mg | – | O=C(O)CCn1cccc(-c2cc(NCc3ccc(Cl)s3)[nH]n2)c1=O [Compound 2, 3-[3-(5-{[(5-chlorothiophen-2-yl)methyl]amino}-1H-pyrazol-3-yl)-2-oxo-1,2-dihydropyridin-1-yl]propanoic acid]
≥ 5 h | 14 µL/min/mg | – | CCC(C)(C)C(=O)n1nc(-c2cccn(CCC(=O)O)c2=O)cc1NCc1ccc(Cl)s1 [Compound 11, 3-[3-(5-{[(5-chlorothiophen-2-yl)methyl]amino}-1-(2,2-dimethylbutanoyl)-1H-pyrazol-3-yl)-2-oxo-1,2-dihydropyridin-1-yl]propanoic acid]
3.83 h | 10 µL/min/mg | – | CC(C)(C)C(=O)n1nc(-c2cccn(CCCC(=O)O)c2=O)cc1NCc1ccc(Cl)s1 [Compound 5, 4-[3-(5-{[(5-chlorothiophen-2-yl)methyl]amino}-1-(2,2-dimethylpropanoyl)-1H-pyrazol-3-yl)-2-oxo-1,2-dihydropyridin-1-yl]butanoic acid]
2.67 h | – | – | CC(C)(C)C(=O)n1nc(-c2cccn(CCC(N)=O)c2=O)cc1NCc1ccc(Cl)s1 [Compound 8, 3-[3-(5-{[(5-chlorothiophen-2-yl)methyl]amino}-1-(2,2-dimethylpropanoyl)-1H-pyrazol-3-yl)-2-oxo-1,2-dihydropyridin-1-yl]propanamide]
3.67 h | – | – | O=C(O)CCn1cccc(-c2cc(NCc3ccc(Cl)s3)n(C(=O)c3ccoc3)n2)c1=O [Compound 12, 3-[3-(5-{[(5-chlorothiophen-2-yl)methyl]amino}-1-(furan-3-carbonyl)-1H-pyrazol-3-yl)-2-oxo-1,2-dihydropyridin-1-yl]propanoic acid]
